Data reported in patent publication US6831078B1, “Azetidinecarboxamide derivatives for treating CNS disorders” (Vernalis Research Limited, priority 1998, dated 2004).
Structures can show the parent of a compound that is named as a salt. Marks after values point to notes of the source that are not given here.

Tests used:
3-MPA-Induced Seizures = test: Antagonism of 3-MPA-induced seizures; assay type: in vivo; conditions: mg/kg i.v. of 3-MPA required to evoke a seizure response; test drug 30 mg/kg p.o. 60 min before 3-MPA; male T/O mice
Description: Several animal seizure models are available for the screening and characterisation of anticonvulsant (antiepileptic) drugs, Most models employ a chemical convulsant to induce seizures and the anticonvulsant potencies of novel compounds are measured in terms of their ability to increase the dose of convulsant required to induce a seizure response (or to prolong the latency to seizure onset following a bolus dose of the convulsant). Most chemical convulsants work by blocking the neurotran […] function of gamma-aminobutyric acid (GABA), the predominant inhibitory neurotransmitter in the mammalian brain. This can be achieved by blocking the postsynaptic action of GABA using pentylenetetrazol or bicuculline, or via a presynaptic action using a GABA synthesis inhibitor to decrease GABA release into the synapse. […] Male albino […] (obtained from Tuck) weighing 28-40 g were used in these studies. […] Immediately following 3-MPA administration, each mouse was placed individually into a cage for observation. The seizure response of each animal was scored quantally as present or absent (response or non-response) during the 5 min period immediately following 3-MPA administration. A seizure response was defined as the onset of the initial clonic phase of the seizure (abrupt loss of righting reflex accompanied by vocalisation). The seizure threshold (in terms of mg/kg i.v. of 3-MPA required to evoke a seizure response) was determined in each treatment group by a sequential up/down method followed by modified probit analysis of the quantal data. […] In these studies, 3-MPA was obtained from Sigma. […] Drugs were administered in a dose volume of 10 ml/kg body weight.

[1] = system: elevated zero-maze model of anxiety; conditions: dose of 100 mg/Kg; orally by gavage 1 hour prior to zero-maze testing
Description: Male Sprague-Dawley rats (Charles River) weighing 300-450 gm are used. Animals are group-housed (5 per cage; cage size: 40×40×20 cm) in a temperature-controlled environment (20±2° C.), under a 12 h light-dark cycle (lights on: 08:00 hours). Food and water are made freely available. Four hours prior to testing, animals are transferred to clean cages and moved to the testing room in order to habituate to the testing environment.
The maze is comprised of a black Perspex annular platform (105 cm diameter, 10 cm width) elevated to 65 cm above ground level, divided equally into four quadrants. Two opposite quadrants are enclosed by clear red Perspex walls (27 cm high) on both the inner and outer edges of the platform, while the remaining two opposite quadrants are surrounded only by a Perspex “lip” (1 cm high) which serves as a tactile guide to animals on these open areas. […]
Rats are placed on a closed quadrant and a 5 min test period is recorded on video-tape. […] Animals are scored as being in the open area when all four paws were in an open quadrant, and in the closed area only when all four paws passed over the open/closed divide. […]

Row | SMILES | melting point | further results
1 | C[C@@H](O)CNC(=O)N1CC(c2ccc(F)c(F)c2)C1 [Example 21] | 108 to 109 °C | 
2 | C[C@H](CO)NC(=O)N1CC(c2ccc(Cl)cc2)C1 [Example 39] | 71 to 75 °C | 
3 | C[C@@H](O)CNC(=O)N1CC(c2ccc(C(C)(C)C)cc2)C1 [Example 4, (R)-3-(4-tert-Butylphenyl)-N-(2-hydroxypropyl)azetidine-1-carboxamide] |  | SC = Seizure threshold after treatment with test drug (3-MPA-Induced Seizures): 27.3 mg/kg
4 | C#CCNC(=O)N1CC(c2cccc(C(F)(F)F)c2)C1 [Example 19, 3-(3-(Trifluoromethyl)phenyl)-N-(2-propynyl)azetidine-1-carboxamide] |  | SC = Seizure threshold after treatment with test drug (3-MPA-Induced Seizures): >200.0^a mg/kg
5 | C[C@@H](O)CNC(=O)N1CC(c2ccccc2C(F)(F)F)C1 [Example 32] | 89 °C | 
6 | C[C@@H](O)CNC(=O)N1CC(c2ccccc2Cl)C1 [Example 34] | 109 °C | 
7 | C#CCNC(=O)N1CC(c2ccc(Cl)cc2)C1 [Example 8, (3-(4-Chlorophenyl)-N-2-propynyl)azetidine-1-carboxamide] |  | SC = Seizure threshold after treatment with test drug (3-MPA-Induced Seizures): 100 mg/kg
8 | C#CCNC(=O)N1CC(c2ccc(F)c(F)c2)C1 [Example 25] | 123 °C | 
9 | C[C@H](O)CNC(=O)N1CC(c2ccc(C(F)(F)F)cc2)C1 [Example 15] |  | SC = Seizure threshold after treatment with test drug (3-MPA-Induced Seizures): 58.4 mg/kg
10 | C=CCNC(=O)N1CC(c2ccc(Cl)cc2)C1 [Example 1] |  | SC = Seizure threshold after treatment with test drug (3-MPA-Induced Seizures): 42.7 mg/kg
11 | C[C@@H](O)CNC(=O)N1CC(c2ccc(F)cc2)C1 [Example 7, (R)-3-(4-Fluorophenyl)-N-(2-hydroxypropyl)azetidine-1-carboxamide] | 104 to 105 °C | SC = Seizure threshold after treatment with test drug (3-MPA-Induced Seizures): 54.4 mg/kg
12 | C[C@@H](O)CNC(=O)N1CC(c2cccc(Cl)c2Cl)C1 [Example 35] | 111 °C | 
13 | C[C@@H](O)CNC(=O)N1CC(c2ccc(Cl)cc2)C1 [Example 9, (R)-3-(4-Chlorophenyl)-N-(2-hydroxypropyl)azetidine-1-carboxiamide] |  | SC = Seizure threshold after treatment with test drug (3-MPA-Induced Seizures): 29.7 mg/kg
14 | C=CCNC(=O)N1CC(c2ccc(C(C)(C)C)cc2)C1 [Example 2, 3-(4-tert-Butylphenyl)-N-(2-propenyl)azeddine-1-carboxamide] |  | SC = Seizure threshold after treatment with test drug (3-MPA-Induced Seizures): 24.2 mg/kg
15 | C[C@@H](O)CNC(=O)N1CC(c2ccc(F)cc2F)C1 [Example 36] | 88 to 89 °C | 
16 | C[C@H](CO)NC(=O)N1CC(c2ccc(Cl)cc2)C1 [Example 40] | 82 to 85 °C | 
17 | CCCNC(=O)N1CC(c2ccc(F)cc2)C1 [Example 45] | 117 to 118.5 °C | 

Row | SMILES | melting point | further results
18 | COCC(C)NC(=O)N1CC(c2ccc(Cl)cc2)C1 (stereo not shown) [Example 38] | 110 °C | 
19 | C[C@H](O)CNC(=O)N1CC(c2ccc(F)cc2)C1 [Example 10] |  | SC = Seizure threshold after treatment with test drug (3-MPA-Induced Seizures): 95.8 mg/kg
20 | NCC1CCN(C(=O)N2CC(c3ccc(Cl)cc3)C2)CC1 [Example 44] | 137 to 138 °C | 
21 | C[C@@H](O)CNC(=O)N1CC(c2ccc(F)c(C(F)(F)F)c2)C1 [Example 27] | 69 to 71 °C | 
22 | O=C(NCCc1ccccn1)N1CC(c2ccc(Cl)cc2)C1 [Example 43] | 125 °C | 
23 | C#CCNC(=O)N1CC(c2ccc(F)c(Cl)c2)C1 [Example 26] | 133 °C | 
24 | C#CCNC(=O)N1CC(c2ccc(Cl)c(F)c2)C1 [Example 31] | 132 °C | 
25 | C#CCNC(=O)N1CC(c2ccccc2C(F)(F)F)C1 [Example 33] | 101 °C | 
26 | C[C@H](NC(=O)N1CC(c2ccc(Cl)cc2)C1)[C@H](O)c1ccccc1 [Example 42] | 120 to 122 °C | 
27 | C#CCNC(=O)N1CC(c2ccc(C(C)(C)C)cc2)C1 [Example 3, 3-(4-tert-Butylphenyl)-N-(2-propynyl)azetidine-1-carboxamide] | 141 °C | SC = Seizure threshold after treatment with test drug (3-MPA-Induced Seizures): 21.4 mg/kg
28 | C[C@@H](O)CNC(=O)N1CC(c2ccc(F)c(Cl)c2)C1 [Example 23] | 83 to 84 °C | 
29 | CC(C)(CO)NC(=O)N1CC(c2ccc(Cl)cc2)C1 [Example 41] | 134 to 135 °C | 
30 | CC(C)(O)CNC(=O)N1CC(c2cccc(Cl)c2)C1 [Example 29] | 102 °C | 
31 | C#CCNC(=O)N1CC(c2ccc(F)c(C(F)(F)F)c2)C1 [Example 28] | 119 °C | 
32 | C=CCNC(=O)N1CC(c2ccc(F)cc2)C1 [Example 5, 3-(4-Fluoropbenyl)-N-(2-propenyl)azetidine-1-carboxamide] |  | SC = Seizure threshold after treatment with test drug (3-MPA-Induced Seizures): 32.4 mg/kg
33 | C#CCNC(=O)N1CC(c2ccc(F)cc2)C1 [Example 6, 3-(4-Fluorophenyl)-N-(2-propynyl)azetddine-1-carboxamide] |  | anxiolytic activity (increase in the frequency of head dips) [1]: effective; SC = Seizure threshold after treatment with test drug (3-MPA-Induced Seizures): 59.5 mg/kg
34 | NC(=O)N1CC(c2cccc(C(F)(F)F)c2)C1 [Example 37] | 198 °C | 

The next lines start with results.

Row | melting point | SMILES | further results
35 | 77 to 79 °C | CC[C@@H](O)CNC(=O)N1CC(c2ccc(F)cc2)C1 (hydrate or solvate) [Example 75] | 
36 | 77 to 78.5 °C | CC(C)(O)CNC(=O)N1CC(c2ccc(F)cc2)C1 [Example 55] | 
37 | 183 to 184 °C | CC(C)(N)CNC(=O)N1CC(c2ccc(Cl)cc2)C1 (as salt: HCl) [Example 79] | 
38 | 77.5 to 79 °C | C[C@@H](O)CNC(=O)N1CC(c2cccc(F)c2)C1 [Example 83] | 
39 | 139.5 to 141 °C | CC(=O)CNC(=O)N1CC(c2ccc(C(F)(F)F)cc2)C1 [Example 80] | 
40 | 99 to 101 °C | O=C(NCCO)N1CC(c2ccc(F)cc2)C1 [Example 57] | 
41 | 64 to 66 °C | C=CCNC(=O)N1CC(c2cccc(C(F)(F)F)c2)C1 [Example 52] | 
42 | 110 to 111.5 °C | CC(C)(O)CNC(=O)N1CC(c2ccc(F)c(C(F)(F)F)c2)C1 [Example 64] | 
43 | 112.5 to 113.5 °C | CC(C)(O)CNC(=O)N1CC(c2cc(F)cc(Cl)c2)C1 [Example 68] | 
44 | 101.5 to 110.25 °C | C#CCNC(=O)N1CC(c2cccc(F)c2)C1 [Example 72] | 
45 | 143 to 144 °C | C[C@@H](O)CNC(=O)N1CC(c2ccc3ccccc3c2)C1 [Example 63] | 
46 | 114 to 115.5 °C | CC(C)(O)CNC(=O)N1CC(c2ccc(Cl)cc2)C1 [Example 66] | 
47 | 94.5 to 96 °C | CC(C)(O)CNC(=O)N1CC(c2cccc(C(F)(F)F)c2)C1 [Example 56] | 
48 | 123 to 124 °C | CC(C)(O)CNC(=O)N1CC(c2ccc(C(F)(F)F)cc2)C1 [Example 84] | 
49 | 118 to 120 °C | C[C@@H](CO)NC(=O)N1CC(c2ccc(F)cc2)C1 [Example 77] | 
50 | 78 to 80 °C | C[C@H](O)CNC(=O)N1CC(c2cccc(Cl)c2)C1 [Example 51] | 
51 | 92.5 to 94 °C | CC(O)CNC(=O)N1CC(c2ccc(Cl)cc2)C1 (stereo not shown) [Example 71] | 

Row | melting point | SMILES | further results
52 | 81 to 82.5 °C | C[C@@H](O)CNC(=O)N1CC(c2cc(F)cc(Cl)c2)C1 [Example 70] | 
53 | 62.5 to 63.5 °C | C=CCNC(=O)N1CC(c2cccc(F)c2)C1 [Example 54] | 
54 | 100 to 102 °C | CCC(C)NC(=O)N1CC(c2ccc(F)cc2)C1 (stereo not shown) [Example 74] | 
55 | 127 to 128.5 °C | CCCNC(=O)N1CC(c2ccc(C(F)(F)F)cc2)C1 [Example 47] | 
56 | 79.5 to 80 °C | C[C@H](O)CNC(=O)N1CC(c2cccc(F)c2)C1 [Example 48] | 
57 | 108.5 to 110 °C | C#CCNC(=O)N1CC(c2cc(F)cc(Cl)c2)C1 [Example 61] | 
58 | 90 to 105 °C (dec.) | C#CCNC(=O)N1CC(c2cccc(Cl)c2)C1 [Example 59] | 
59 | 136 to 137.5 °C | C=CCNC(=O)N1CC(c2ccc(C(F)(F)F)cc2)C1 [Example 46] | 
60 | 106 to 107 °C | C[C@@H](O)CNC(=O)N1CC(c2ccc(C(F)(F)F)cc2F)C1 [Example 58] | 
61 | 205 to 208.5 °C | NC(=O)N1CC(c2ccc(F)cc2)C1 [Example 67] | 
62 | 141 to 142.5 °C | O=C(N[C@@H]1CCCC[C@H]1O)N1CC(c2ccc(F)cc2)C1 [Example 76] | 
63 | 90 to 93 °C | O=C(NCCCO)N1CC(c2ccc(F)cc2)C1 [Example 65] | 
64 | 198 to 200.5 °C | NC(=O)N1CC(c2cc(F)cc(Cl)c2)C1 [Example 69] | 
65 | 65 to 66 °C | C=CCNC(=O)N1CC(c2cccc(Cl)c2)C1 [Example 53] | 
66 | 90 to 92 °C | O=C(NC[C@H](O)CO)N1CC(c2ccc(Cl)cc2)C1 [Example 78] | 
67 | 110 to 111 °C | C[C@H](O)CNC(=O)N1CC(c2cc(Cl)cc(Cl)c2)C1 [Example 49] | 
